Measurements as given in patent publication US11219607B2, “Methods for suppressing cancer-related cachexia” (Ohio State Innovation Foundation, priority 2013, dated 2022).

Test system: C-26 tumor-bearing mice
Experiment: C-26 colon adenocarcinoma model of cancer cachexia (body, muscle and tissue weights, tumor growth, food intake)
Format: in vivo, CD2F1 mice
Procedure: In one aspect, tumors were established by subcutaneous injection of C-26 cells (0.5×10^6 cells in 0.1 ml) into the right flank of male CD2F1 mice (approximately 6 weeks of age; Harlan Laboratories, Indianapolis, Ind.)(11). Tumor-bearing mice, as well as tumor-free mice serving as non-cachectic controls, were randomized into groups that were treated with either AR-42 (50 mg/kg, p.o. by gavage, every other day; Arno Therapeutics, Inc., Flemington, N.J.) or vehicle (0.5% methylcellulose (w/v) and 0.1% Tween-80 (v/v) in sterile water) starting 6 days after cell injection. To investigate the effect of delayed treatment, treatments with drug and/or vehicle were started 6, 10 and 12 days after cancer cell injection.
In another aspect, subcutaneous tumors were established in male C57BL/6 mice (approximately 6 weeks of age; Harlan) by injection of 0.5×10^6 LLC cells into the right flank. Treatment with AR-42 and vehicle was performed as for the C-26 model beginning 6 days after cell injection. In both models, body weights and food consumption were monitored daily and tumor size was measured no less than every two days. Mice were fasted for 2 hours prior to sacrifice, at which time, hind limb muscles, heart, spleen, epididymal fat, and blood were collected and the weights of the solid tissues were measured. Muscle samples were frozen in liquid nitrogen-chilled 2-methylbutane and then stored at −80° C. until analysis.
In one aspect, mice were treated orally by gavage with AR-42 (50 mg/kg) or vehicle every other day starting 6 days after injection C-26 cells, when palpable tumors had formed. […] By the study endpoint (day 15), the magnitude of the weight loss, after deducting the mass of the tumors (1 cm^3 volume=1 gram mass), reached >20% for the vehicle-treated group, and 6% for AR-42-treated mice (center). […] The AR-42-treated mice, despite their large tumor burden, were alert, responsive, active, and lacked the hunched posture and rough haircoat observed in vehicle-treated counterparts by the end point of this study (FIG. 1B).
CD2F1 and C57BL/6 mice were group-housed under conditions of constant photoperiod (12-hour light/12-hour dark), temperature and humidity with ad libitum access to water and standard diet. Mice were briefly anesthetized (isoflurane, 3-4%) during administration of drugs (AR-42, vorinostat, vehicle) by oral gavage. Food consumption was estimated by weighing food in each cage daily and dividing the daily decrease in food by the number of mice in the cage. Tumor volumes were calculated from caliper measurements using a standard formula (length×width^2×π/6).

With `CC(C)[C@H](C(=O)Nc1ccc(C(=O)NO)cc1)c1ccccc1` [AR-42, (S)—N-hydroxy-4-(3-methyl-2-phenylbutanamido)benzamide] the “enlarged spleens (splenomegaly) in tumor-bearing mice” value was “not improved”, the “loss of cardiac tissue mass in tumor-bearing mice” value was “ameliorated” and the “tumor growth relative to vehicle” value (50 mg/kg p.o. every other day from day 6, 15-day study) was “did not alter tumor growth”. The “magnitude of the weight loss after deducting the mass of the tumors” value (50 mg/kg p.o. every other day from day 6, study endpoint day 15, vehicle group >20%) was 6%, the “reduction of tibialis anterior weight relative to tumor-free control mice” value (day 15, tumor-bearing/vehicle 10.5%) was 0.8% and the “reduction of quadriceps weight relative to tumor-free control mice” value (day 15, tumor-bearing/vehicle 18.1%) was 5.8%. For the same compound, the “reduction of gastrocnemius weight relative to tumor-free control mice” value (day 15, tumor-bearing/vehicle 20.6%) was 9.6% and the “loss of adipose tissue mass in tumor-bearing mice” value (restored to a level comparable to tumor-free/AR-42 mice) was “restored the loss of adipose tissue mass”.
